Where “and” joins values, the source holds several entries; their conditions need not be identical. Identical values can stand only once. Toxic doses and inconclusive results are not listed. How the source made its calls: active means survival T/C of 150% or more; inactive means T/C below 125% in these data.
System: CD2F1 mice, L1210 leukemia ip, survival T/C
Assay: NCI In Vivo Anticancer Drug Screen. Data for tumor model L1210 Leukemia (intraperitoneal) in CD2F1 (CDF1) mice
Settings: endpoint: mean survival time, higher = longer survival
Summary of the method: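 In this screen, transplantable tumors were grown in mice given either the compound or its vehicle. Results were expressed as the treated measurement relative to the control measurement.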

[1] = dose: 50.0 mg/kg/injection, schedule: Q04DX002 (ip), vehicle: saline with Tween-80
[2] = dose: 100.0 mg/kg/injection, schedule: Q04DX002 (ip), vehicle: saline with Tween-80
[3] = dose: 200.0 mg/kg/injection, schedule: Q04DX002 (ip), vehicle: saline with Tween-80
[4] = dose: 400.0 mg/kg/injection, schedule: Q04DX002 (ip), vehicle: saline with Tween-80
[5] = dose: 100.0 mg/kg/injection, schedule: Q01DX009 (ip), vehicle: saline with Tween-80
[6] = dose: 100.0 mg/kg/injection, schedule: Q04DX003 (ip), vehicle: saline with Tween-80
[7] = dose: 200.0 mg/kg/injection, schedule: Q01DX009 (ip), vehicle: saline with Tween-80
[8] = dose: 200.0 mg/kg/injection, schedule: Q04DX003 (ip), vehicle: saline with Tween-80
[9] = dose: 400.0 mg/kg/injection, schedule: Q01DX009 (ip), vehicle: saline with Tween-80
[10] = dose: 400.0 mg/kg/injection, schedule: Q04DX003 (ip), vehicle: saline with Tween-80
[11] = dose: 100.0 mg/kg/injection, schedule: Q04DX003 (ip), vehicle: saline
[12] = dose: 200.0 mg/kg/injection, schedule: Q04DX003 (ip), vehicle: saline

Measured: T/C

O=C(O)CCc1ccccc1-c1ccccc1
inactive: [1] 105 % of control | [2] 96 % of control and 97 % of control | [3] 103 % of control and 105 % of control | [4] 100 % of control

CC1=C(C)C(=O)O[C@@H]([C@](C)(O)[C@]2(O)CC[C@@]3(O)[C@@H]4C[C@H]5O[C@]56CC=CC(=O)[C@]6(C)[C@H]4CC[C@]23C)C1
inactive: dose: 3.12 mg/kg/injection, schedule: Q01DX009 (ip), vehicle: saline with Tween-80 104 % of control | dose: 3.12 mg/kg/injection, schedule: Q01DX009 (ip), vehicle: saline 112 % of control | dose: 6.25 mg/kg/injection, schedule: Q01DX009 (ip), vehicle: saline with Tween-80 105 % of control | dose: 6.25 mg/kg/injection, schedule: Q01DX009 (ip), vehicle: saline 123 % of control | dose: 12.5 mg/kg/injection, schedule: Q01DX009 (ip), vehicle: saline 112 % of control | dose: 25.0 mg/kg/injection, schedule: Q01DX009 (ip), vehicle: saline with Tween-80 107 % of control | dose: 25.0 mg/kg/injection, schedule: Q01DX009 (ip), vehicle: saline 110 % of control | dose: 50.0 mg/kg/injection, schedule: Q01DX009 (ip), vehicle: saline with Tween-80 115 % of control | dose: 50.0 mg/kg/injection, schedule: Q01DX009 (ip), vehicle: saline 98 % of control | [5] 107 % of control | dose: 100.0 mg/kg/injection, schedule: Q01DX009 (ip), vehicle: saline 93 % of control

CC12C=C(C(=O)c3ccccc3)C(CC1)C2(C)C (stereo not given)
inactive: [5] 95 % of control | [6] 96 % of control | [7] 97 % of control | [8] 93 % of control | [9] 97 % of control | [10] 91 % of control

CC1SC(C)SC(C)S1 (stereo not given)
inactive: dose: 75.0 mg/kg/injection, schedule: Q01DX001 (ip), vehicle: saline with Tween-80 98 % of control | dose: 150.0 mg/kg/injection, schedule: Q01DX001 (ip), vehicle: saline with Tween-80 98 % of control | dose: 300.0 mg/kg/injection, schedule: Q01DX001 (ip), vehicle: saline with Tween-80 102 % of control

CC(=O)CC(C)(C)S(=O)(=O)Cc1ccccc1
inactive: dose: 100.0 mg/kg/injection, schedule: Q01DX001 (ip), vehicle: Klucel (hydroxypropylcellulose) (HPC) 93 % of control | dose: 200.0 mg/kg/injection, schedule: Q01DX001 (ip), vehicle: Klucel (hydroxypropylcellulose) (HPC) 96 % of control | dose: 400.0 mg/kg/injection, schedule: Q01DX001 (ip), vehicle: Klucel (hydroxypropylcellulose) (HPC) 96 % of control

O/N=C(/CN1CCOCC1)c1ccccc1
inactive: [5] 97 % of control | [6] 102 % of control | [7] 94 % of control | [8] 96 % of control | [9] 96 % of control | [10] 102 % of control

N#CCCN=C1C=CC(=C(c2ccc(NCCC#N)cc2)c2ccc(Cl)cc2Cl)C=C1
inactive: [2] 117 % of control

CC(=O)NC(C)C(=O)NC1C(C)OC(=O)C2=C(O)CC(O)C(O)C21 (stereo not given)
inactive: [6] 92 % of control | [8] 100 % of control | [10] 97 % of control

CSc1nccc2c1nnn2C1OC(CO)C(O)C1O (stereo not given)
inactive: dose: 12.5 mg/kg/injection, schedule: Q01DX005 (ip), vehicle: other 101 % of control | dose: 25.0 mg/kg/injection, schedule: Q01DX005 (ip), vehicle: other 101 % of control | dose: 50.0 mg/kg/injection, schedule: Q01DX005 (ip), vehicle: other 97 % of control | dose: 100.0 mg/kg/injection, schedule: Q01DX005 (ip), vehicle: other 101 % of control | dose: 200.0 mg/kg/injection, schedule: Q01DX005 (ip), vehicle: other 100 % of control

CN1CCC(O)(c2ccccc2C2=NC(C)(C)CO2)CC1
inactive: [1] 96 % of control | dose: 100.0 mg/kg/injection, schedule: Q01DX001 (ip), vehicle: saline with Tween-80 103 % of control | [2] 101 % of control | dose: 200.0 mg/kg/injection, schedule: Q01DX001 (ip), vehicle: saline with Tween-80 102 % of control | [3] 108 % of control

[CH3][Sb]([CH3])([CH3])([O]C(=O)C(Cl)(Cl)Cl)[O]C(=O)C(Cl)(Cl)Cl
inactive: [2] 98 % of control | [3] 107 % of control | [4] 103 % of control

O=C(CCl)c1cccnc1C(=O)O
inactive: [6] 98 % of control

COc1ccccc1NC(=O)Oc1ccc2ccccc2c1
inactive: [2] 103 % of control | [3] 91 % of control

CN(C)C(=O)c1ccc[n+](CC(=O)NCc2ccccc2)c1
inactive: [11] 98 % of control | [12] 98 % of control

COC(=O)Nc1ccc(OS(=O)(=O)N(C)C)cc1
inactive: [6] 103 % of control | [8] 98 % of control | [10] 103 % of control

CNc1c2c(nc3ccccc13)CCCC2
inactive: dose: 5.0 mg/kg/injection, schedule: Q04DX003 (ip), vehicle: saline with Tween-80 96 % of control

NC(=O)CC(NC(c1ccccc1)(c1ccccc1)c1ccccc1)C(=O)ON1C(=O)CCC1=O (stereo not given)
inactive: dose: 100.0 mg/kg/injection, schedule: Q01DX001 (ip), vehicle: saline sonified 96 % of control | dose: 200.0 mg/kg/injection, schedule: Q01DX001 (ip), vehicle: saline sonified 98 % of control | dose: 400.0 mg/kg/injection, schedule: Q01DX001 (ip), vehicle: saline sonified 105 % of control

O=[N+]([O-])c1ccc(N/N=C\c2ccc3ccccc3n2)cc1
inactive: [11] 106 % of control | [12] 109 % of control | dose: 400.0 mg/kg/injection, schedule: Q04DX003 (ip), vehicle: saline 101 % of control

Source: PubChem BioAssay AID256 (DTP/NCI, 2004)
